Each structure is given as a SMILES string. Where two headings read alike, the source gives them in different places.

Results on 3 compounds are retold here after US8658672B2, “HIF-1α activating agent” (University of Seoul Foundation of Industrial and Academic …, priority 2006, dated 2014).

The subject of data set [1] is CAM (choriallantoic membrane). The note with it: CAM assay; for angiogenesis: filter paper with 10 or 50 μM solution 10 μl, three days. On the procedure:
Particularly, the fertilized egg was incubated in a 37° C. 55% humid incubator. 10 days later, the egg albumin was removed by using a 2 ml hypodermic syringe in order to separate CAM and yolk sac from the shell membrane. On 10.5th day, the egg shell was removed (1 cm^2). […] Three days later, 1-2 ml of 10% fat emulsion was injected into chorioallantoic membrane, followed by observation under a microscope.

Data set [2] relates to VEGF. The note with it: 50 μM; cell line not clearly stated (SH-SY5Y implied).
Procedure: Total RNA was extracted by using RNase Spin column (Qiagen, USA). cDNA was synthesized from 1 μg of the extracted RNA using AMV reverse transcriptase (Promega, USA) and random hexamer (Gibco-BRL, USA). RT-PCR was performed using the synthesized cDNA as a template with a VEGF forward primer represented by SEQ. […] NO: 1 (5′-[sequence]-3′) and a VEGF reverse primer represented by SEQ. […] NO: 2 (5′-[sequence]-3′). RT-PCR conditions were as follows; predenaturation at 95° C. for 5 minutes, denaturation at 95° C. for 45 seconds, annealing at 56° C. for 45 seconds, polymerization at 72° C. for 60 seconds, 30 cycles from denaturation to polymerization. For the control, RT-PCR was performed again with an 18S forward primer represented by SEQ. […] NO: 3 (5′-[sequence]-3′) and an 18S reverse primer represented by SEQ. […] NO: 4 (5′-[sequence]-3′). RT-PCR conditions were as follows; predenaturation at 95° C. for 5 minutes, denaturation at 95° C. for 45 seconds, annealing at 56° C. for 45 seconds, polymerization at 72° C. for 60 seconds, 30 cycles from denaturation to polymerization.
In data set [3] the test system is VEGF. The experiment in a line: Effects of CQ and TPEN on the expression of VEGF, a HIF-1α target gene (RT-PCR). Type of data set: cell-based, human. The note with it: TPEN 5 μM. The source says:
ID. […] ID. NO: 2 (5′-[…]-3′). […] ID. […] ID. NO: 4 (5′-[…]-3′).

For a further data set, the system named is human cancer cell lines. The note with it: several human cancer cell lines; cited from earlier work.
For a further data set, the system named is APP2576 transgenic mice. To be noted: cited from earlier work.
The test system of another data set is GAL4-HIF-1α. The experiment in a line: HIF-1α transactivation, Gal4-driven reporter gene assay in HepG2 cells. Type of data set: cell-based, human. To be noted: normoxic condition, CQ 10, 50 μM, TPEN 5 μM, 16 hours. On the procedure: Human HepG2 hepatoma cells were cultured at the concentration of 5×10^4, which were transfected with 100 ng of Gal-4-driven reporter plasmid encoding the firefly luciferase gene under the control of the Gal4 binding site together with pGal4/HIF-1α plasmid which expresses HIF-1α linked to the DNA binding domain of the yeast Gal4 protein (amino acids 1-147). The transfected human HepG2 hepatoma cells were incubated in both normoxic and hypoxic conditions and then treated with CQ (10, 50 μM) for 16 hours in normoxic condition. 48 hours after the transfection, luciferase activities were analyzed using the reporter gene assay system (Promega, USA) and normalized by β-galactosidase activities.

The test system of data set [4] is HRE (hypoxia-response element). Put plainly: HRE dependent gene expression in HepG2 hepatoma cells (luciferase reporter gene assay). Type of data set: cell-based, human. The note with it: p(HRE)4-luc, TPEN 5, 10 μM, CQ 10, 50 μM, 16 hours. The method, then: Human HepG2 hepatoma cells were grown to the density of 5×10^4 and then transfected with 100 ng of HRE-driven reporter plasmid, p(HRE)4-luc together with plasmid pCHO110 which encodes β-galactosidase. The transfected human HepG2 hepatoma cells were cultured under normoxic condition and hypoxic condition and then treated with TPEN (5, 10 μM) and CQ (10, 50 μM) for 16 hours each. 48 hours after the transfection, luciferase activities were analyzed using the reporter gene assay system (Promega, USA) and normalized by β-galactosidase activities.

In data set [5] the target is T1, FIH-1 (Homo sapiens, UniProt Q9NWT6). The note with it: F-HIF-1α peptide 4 μM, recombinant FIH-1, MALDI-TOF.
Procedure: The present inventors examined FIH-1 activity by measuring the asparagine hydroxylation of F-HIF-1α peptide. The peptide hydroxylation was measured by mass spectrophotometry.
Particularly, F-HIF-1α (788-822 amino acids: FITC-aca-[sequence]) containing fluorescein and aca (aminocaproic acid) linker (AnyGen, KwangJu, Korea) at N-terminal was reacted with FIH-1 protein. The F-HIF-1α peptide was incubated at a final concentration of 4 μM with 2.8 μg of recombinant FIH-1 in reaction solution [20 mM Tris buffer (pH 7.5), 5 mM KCl, 1.5 mM MgCl2, 100 μM α-ketoglutarate and 400 μM ascorbic acid: final volume 50 μl]. After incubation with agitation for 2 hours at room temperature, excess salts were removed with ZipTipC18 (Millipore, USA). The F-HIF-1α peptide was eluted from the tip with a-cyano-4-hydroxycinnamic acid in acetonitrile/water (50:50 v/v) containing 0.1% TFA followed by washing with distilled water containing 0.1% TFA. The eluted peptide solution was transferred to a MALDI sample plate and MALDI-TOF measurements were performed with a Voyager analyzer (Applied Biosystems, USA).
The conditions of data set [6]: in vivo; cited from earlier work.
For data set [7], the system named is patients with Alzheimer's disease. To be noted: phase II clinical trial; cited from earlier work.
The conditions of data set [8]: cited from earlier work.
Data set [9] addresses T1, FIH-1. The experiment in a line: In vitro FIH-1 activity (capture of radio-labeled HIF-1α by GST-CBP). Format: biochemical. More on the design: histidine tag; made in house; host or cells: E. coli. On the procedure:
The human FIH-1 gene (AF395830) was cloned into pET28a vector (Novagen, USA) and FIH-1 was overexpressed in E. coli as a histidine-tagged fusion protein and purified by Ni-affinity chromatography. The fusion protein was purified by gel-filtration chromatography (Hi-Load Superdex 200) and concentrated by ultrafiltration (Choi et al., Mol Pharmacol 68:1803-1809, 2005).
The resin-bound GST-CBP N-domain (amino acids 1-450) (Kamei et al., Cell 85:403-414, 1996) was then added to 1 μg of each mixture in 500 μl of binding buffer (200 mM Tris-HCl (pH 8.0), 150 mM NaCl, 20 μM ZnCl2, 0.5 mM DTT) and incubation continued for one hour at 4° C. Glutathione-uniflow resin bound protein was washed four times with 1 ml of 0.1% Nondiet P-40 containing binding buffer, and visualized by SDS-PAGE by eluting using SDS sample buffer (Dann et al., Proc Natl Acad Sci USA 99:15351-15356, 2002). The present inventors substituted the asparagine-803 residue of HIF-1α with alanine to generate HIF-1α mutant [HIF-1α-C(N803A)], followed by investigation on FIH-1 activity by the same manner as described above.
Radio-labeled HIF-1α was reacted with the purified recombinant FIH-1, in the presence or absence of CQ or TPEN. FIH-1 was expected to […] the asparagine-803 residue of HIF-1α and thus inhibit the interaction with CBP binding to HIF-1α transactivation domain (Mahon, P. C. et al., Genes Dev. 15, 2675-2686, 2001; Dannm C. E. R., et al., Proc. Natl. Acad. Sci. USA 99, 15351-15356, 2002; Lando, D., et al., Science 295, 858-861, 2002; Freedman, S. J. et al., Proc. Natl. Acad. Sci. USA 99, 5367-5372, 2002).

For data set [10] the following is noted: used as an antibiotic in the mid-1900s, Japan; cited from earlier work.
Data set [11] has as its system VEGF. To be noted: normoxic condition, CQ 10, 50 μM, 16 hours; HepG2 and SH-SY5Y cells. On the procedure: (§1) Total RNA was extracted by using RNase Spin column (Qiagen, USA). VEGF expression was investigated by Northern blot analysis. Northern blot hybridization was performed using ^32P-labeled VEGF cDNA probe and ^32P-labeled EPO cDNA probe. The Northern blotting was performed by the conventional method well known to those in the art (Sambrook et al., Molecular cloning, 1989).

A further data set relates to EPO. To be noted: normoxic condition, CQ 10, 50 μM, 16 hours; HepG2 and SH-SY5Y cells. On the procedure:
as §1

Where [12] appears, read: 10 μM solution 10 μl (lower amount, 30.3-39.7 ng).
Where [13] appears, read: 50 μM solution 10 μl (higher amount, 151.5-198.5 ng).

T1 sequence (Q9NWT6 whole entry): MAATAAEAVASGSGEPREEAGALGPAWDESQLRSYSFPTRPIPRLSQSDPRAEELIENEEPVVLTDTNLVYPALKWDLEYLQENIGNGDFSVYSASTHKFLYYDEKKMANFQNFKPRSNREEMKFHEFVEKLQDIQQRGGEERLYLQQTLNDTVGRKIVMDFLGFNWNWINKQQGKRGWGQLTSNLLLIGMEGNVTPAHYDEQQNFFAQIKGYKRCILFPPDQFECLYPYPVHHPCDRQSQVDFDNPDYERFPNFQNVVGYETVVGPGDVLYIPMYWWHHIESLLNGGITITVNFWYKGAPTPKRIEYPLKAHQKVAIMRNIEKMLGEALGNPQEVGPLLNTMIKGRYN

`Oc1c(Br)cc(Br)c2cccnc12` [C, 5,7-dibromo-8-hydroxyquinoline]: the entries for the “Angiogenesis/total (No.)” value in [1] (setting [12]) and in [1] (setting [13]) were 4/6 and 3/5, respectively. Besides, the angiogenesis result in data set [1] is “promote angiogenesis”. The “VEGF expression, % to the expression level induced by CQ” value in the data set on VEGF [2] is listed as 60-70%.

As to `Oc1c(I)cc(Cl)c2cccnc12` [CQ, 5-chloro-7-iodo-8-quinolinol], the VEGF expression result is “differed in their effects on VEGF expression” in the data set on VEGF [3] (HepG2 cells, normoxic, CQ 10, 100 μM); “increased VEGF expression” with VEGF [3] (SH-SY5Y cells, normoxic condition, CQ 10, 100 μM); “none of the control, TPEN and CQ increased VEGF expression” with VEGF [3] (hypoxic condition, 16 hours, CQ 100 μM, SH-SY5Y and HepG2 cells). Moreover, the “Angiogenesis/total (No.)” value in [1] (setting [12]) and in [1] (setting [13]) was 8/12 in each case. The angiogenesis entry in data set [1] is “promote angiogenesis”. Besides, the apoptotic cell death result in the data set on human cancer cell lines is “causes apoptotic cell death”. In the data set with APP2576 transgenic mice, the “amyloid beta plaques and serum levels of amyloid beta” value is “reduced both amyloid beta plaques and serum levels of amyloid beta”. The systemic adverse effects entry with APP2576 transgenic mice is on record as “without systemic adverse effects”. In addition, in the data set on GAL4-HIF-1α, the “transactivation activity of HIF-1α” value is listed as “increased transactivation activity of HIF-1α”. The “HIF-1α dependent hypoxia-response element (HRE) activity” value in data set [4] is recorded as “induced HIF-1α dependent hypoxia-response element (HRE) activity”. The “asparagine-hydroxylating activity of FIH-1” value at FIH-1 [5] is recorded as “inhibits the asparagine-hydroxylating activity of FIH-1”. Further, in data set [6], the “crossing of the blood-brain barrier” value is on record as “able to cross the blood-brain barrier”. For the same compound, the cognitive decline entry in [7] was “slowed cognitive decline”. Moreover, in data set [7], the “plasma amyloid beta concentrations” value is “decreased plasma amyloid beta concentrations”. Also, the “pKa value, Ca2+” value in [8] (Ca^2+) was 8.1. Moreover, in [8] (Cu^2+), the “pKa value, Cu2+” value was 15.8. Moreover, the “pKa value, Mg2+” value in data set [8] (Mg^2+) is given as 8.6. The “pKa value, Zn2+” value in [8] (Zn^2+) was 12.5. Further, the FIH-1 activity result at FIH-1 [9] (CQ 10 μM and 50 μM, interaction between HIF-1α and CBP as readout) was “FIH-1 activity was reduced”. Besides, the “interaction between CBP and HIF-1α-C(N803A) mutant” value on FIH-1 [9] (HIF-1α-C(N803A) mutant, presence or absence of CQ or FIH-1) is “did not change the interaction between CBP and HIF-1α-C (N803A)”. Also, the “effect of Cu(II) on the inhibition of FIH-1 activity by CQ” value on FIH-1 [9] (co-treatment with Cu(II)) is listed as “failed to reverse the inhibitory effect of CQ”. Also, the “effect of Zn(II) on the inhibition of FIH-1 activity by CQ” value on FIH-1 [9] (co-treatment with Zn(II)) was “failed to reverse the inhibitory effect of CQ”. Also, in data set [10], the “adverse effect in people” value is listed as “caused subacute myelo-optic neuropathy”. For the same compound, the “expression of VEGF” value with VEGF [11] was “increased expressions of VEGF and EPO”. For the same compound, the “expression of EPO” value with EPO was “increased expressions of VEGF and EPO”.

`Oc1c(I)cc(I)c2cccnc12` [B, 5,7-diiodo-8-hydroxyquinoline]: the “Angiogenesis/total (No.)” value in [1] (setting [12]) is 5/7; in data set [1] (setting [13]) it was 4/6. Also, in data set [1], the angiogenesis entry is “promote angiogenesis”.
